{"source": "patent US9504755B2", "about": "“Multi-arm polymeric alkanoate conjugates” (Nektar Therapeutics, priority 2008, dated 2016)", "key": {"[1]": {"test_system": "LS174T tumors", "assay": "Anti-tumor activity in LS174T colorectal mouse xenograft model", "assay_type": "in vivo", "experimental": "H460, LS174T and LoVo tumors were established in female athymic nude mice. Groups of 10 mice received a total of three single doses of 4-ARM-PEG20K-BA-DOC or docetaxel administered every 7 days (q7d×3) at several doses up to a maximum tolerated dose (MTD). Control groups received no treatment after tumor implant. Animals were weighed daily for the first five days and twice weekly thereafter. Tumor volumes were measured twice weekly after the first drug injection.\nAnti-tumor activity was measured as changes in tumor volume, time to reach endpoint, and complete or partial tumor regression.\nTreatment outcome was evaluated by Tumor Growth Delay (TGD), which is defined as the increase in median time to endpoint in a treatment group compared to the control group. Here it is expressed as % TGD, as a percentage to the median time to endpoint of the control group.\nA tumor whose volume was reduced to 50% or less for three consecutive measurements compared to its volume on Day 1 was considered to be in partial regression. Complete regression was defined as volume […] 13.5 mm^3 for three consecutive measurements.\nAcceptable toxicity was defined as a group mean body weight (BW) loss of less than 20% during the study and not more than one treatment-related death among ten treated animals."}, "[2]": {"assay": "Stability in dog plasma", "assay_type": "in vitro ADME", "details": "37° C.", "experimental": "(§1) The objective of the study was to assess the stability of 4-ARM-PEG20K-BA-docetaxel in mouse, rat, dog, and human plasma.\n(§2) 4-ARM-PEG20K-BA-docetaxel was spiked ([…]; 60 μM) into heparinized, pooled male mouse, rat, and dog plasma; mixed sex pooled human plasma; and phosphate buffered saline. Triplicate samples were incubated at 37° C. for 0, 15, 30, 60, 120, and 240 min. Aliquots were removed at each timepoint and analyzed for disappearance of 4-ARM-PEG20K-BA-docetaxel and appearance of docetaxel using the validated dog plasma analytical method."}, "[3]": {"assay": "Stability in human plasma", "assay_type": "in vitro ADME", "details": "37° C.", "experimental": "as §1, §2"}, "[4]": {"assay": "Stability in rat plasma", "assay_type": "in vitro ADME", "details": "37° C.", "experimental": "as §1, §2"}, "[5]": {"assay": "Stability in mouse plasma", "assay_type": "in vitro ADME", "details": "37° C.", "experimental": "as §1, §2"}, "[6]": {"assay": "Stability in phosphate buffered saline", "assay_type": "physicochemical", "details": "37° C.", "experimental": "as §1, §2"}, "[7]": {"details": "12.7 mg/kg (38.1 mg/m^2), q7d×3"}, "[8]": {"details": "16.9 mg/kg (50.7 mg/m^2), q7d×3"}, "[9]": {"details": "22.5 mg/kg (67.5 mg/m^2), q7d×3"}, "[10]": {"details": "30 mg/kg (90 mg/m^2), q7d×3 (MTD of docetaxel)"}, "[11]": {"details": "30 mg/kg (90 mg/m^2), q7d×3 (MTD of docetaxel), listed as docetaxel"}, "[12]": {"details": "40 mg/kg (120 mg/m^2), q7d×3 (MTD of 4-ARM-PEG20K-BA-DOC)"}}, "note": "Marks after values point to notes of the source that are not given here."}
{"compound": "CC(=O)O[C@@]12CO[C@@H]1C[C@H](O)[C@@]1(C)C(=O)[C@H](O)C3=C(C)[C@@H](OC(=O)[C@H](O)[C@@H](NC(=O)OC(C)(C)C)c4ccccc4)C[C@@](O)([C@@H](OC(=O)c4ccccc4)[C@H]21)C3(C)C", "note": "[Docetaxel, reference compound]", "values": [{"measurement": "BW Loss (%)", "setting": "[1]; [7]", "result": 8.8, "unit": "%"}, {"measurement": "Day of BW Nadir", "setting": "[1]; [7]", "result": 23}, {"measurement": "No. Surviving/No. Treated Mice", "setting": "[1]; [7]", "result": "10/10"}, {"measurement": "PR (partial regressions)", "setting": "[1]; [7]", "result": 0}, {"measurement": "TGD (%)", "setting": "[1]; [7]", "result": "69* %"}, {"measurement": "BW Loss (%)", "setting": "[1]; [8]", "result": 11.2, "unit": "%"}, {"measurement": "Day of BW Nadir", "setting": "[1]; [8]", "result": 23}, {"measurement": "No. Surviving/No. Treated Mice", "setting": "[1]; [8]", "result": "10/10"}, {"measurement": "PR (partial regressions)", "setting": "[1]; [8]", "result": 0}, {"measurement": "TGD (%)", "setting": "[1]; [8]", "result": "96* %"}, {"measurement": "BW Loss (%)", "setting": "[1]; [9]", "result": 6.7, "unit": "%"}, {"measurement": "Day of BW Nadir", "setting": "[1]; [9]", "result": 23}, {"measurement": "No. Surviving/No. Treated Mice", "setting": "[1]; [9]", "result": "10/10"}, {"measurement": "PR (partial regressions)", "setting": "[1]; [9]", "result": 0}, {"measurement": "TGD (%)", "setting": "[1]; [9]", "result": "135* %"}, {"measurement": "Day of BW Nadir", "setting": "[1]; 30 mg/kg (90 mg/m^2), q7d×3", "result": 23}, {"measurement": "No. Surviving/No. Treated Mice", "setting": "[1]; 30 mg/kg (90 mg/m^2), q7d×3", "result": "10/10"}, {"measurement": "BW Loss (%)", "setting": "[1]; [10]", "result": 16.6, "unit": "%"}, {"measurement": "PR (partial regressions)", "setting": "[1]; [10]", "result": 0}, {"measurement": "TGD (%)", "setting": "[1]; [10]", "result": "166* %"}, {"measurement": "PR (partial regressions)", "setting": "[1]; [11]", "result": "no partial regressions"}, {"measurement": "TGD (%)", "setting": "[1]; [11]", "result": 166, "unit": "%"}]}
{"compound": "4-ARM-PEG20K-Butanoate-Linked Docetaxel Conjugate [4-ARM-PEG20K-BA-DOC]", "values": [{"measurement": "Conjugate remaining at 4 hr (%)", "setting": "[2]; 60 μM", "result": 93, "unit": "%"}, {"measurement": "Docetaxel released at 4 hr (%)", "setting": "[2]; 60 μM", "result": 3, "unit": "%"}, {"measurement": "Mass balance (%)", "setting": "[2]; 4 hr", "result": 95, "unit": "%"}, {"measurement": "Conjugate remaining at 4 hr (%)", "setting": "[3]; 60 μM", "result": 88, "unit": "%"}, {"measurement": "Docetaxel released at 4 hr (%)", "setting": "[3]; 60 μM", "result": 4, "unit": "%"}, {"measurement": "Mass balance (%)", "setting": "[3]; 4 hr", "result": 92, "unit": "%"}, {"measurement": "Conjugate remaining at 4 hr (%)", "setting": "[4]; 60 μM", "result": 64, "unit": "%"}, {"measurement": "Docetaxel released at 4 hr (%)", "setting": "[4]; 60 μM", "result": 20, "unit": "%"}, {"measurement": "Mass balance (%)", "setting": "[4]; 4 hr", "result": 84, "unit": "%"}, {"measurement": "BW Loss (%)", "setting": "[1]; [8]", "result": 12.4, "unit": "%"}, {"measurement": "Day of BW Nadir", "setting": "[1]; [8]", "result": 23}, {"measurement": "No. Surviving/No. Treated Mice", "setting": "[1]; [8]", "result": "9/10"}, {"measurement": "PR (partial regressions)", "setting": "[1]; [8]", "result": 0}, {"measurement": "TGD (%)", "setting": "[1]; [8]", "result": "126* %"}, {"measurement": "BW Loss (%)", "setting": "[1]; [9]", "result": 11.1, "unit": "%"}, {"measurement": "Day of BW Nadir", "setting": "[1]; [9]", "result": 23}, {"measurement": "No. Surviving/No. Treated Mice", "setting": "[1]; [9]", "result": "10/10"}, {"measurement": "PR (partial regressions)", "setting": "[1]; [9]", "result": 0}, {"measurement": "TGD (%)", "setting": "[1]; [9]", "result": "169* %"}, {"measurement": "Day of BW Nadir", "setting": "[1]; 30 mg/kg (90 mg/m^2), q7d×3", "result": 23}, {"measurement": "No. Surviving/No. Treated Mice", "setting": "[1]; 30 mg/kg (90 mg/m^2), q7d×3", "result": "9/10"}, {"measurement": "BW Loss (%)", "setting": "[1]; [10]", "result": 17.9, "unit": "%"}, {"measurement": "TGD (%)", "setting": "[1]; [10]", "result": 250, "unit": "%"}, {"measurement": "Day of BW Nadir", "setting": "[1]; 40 mg/kg (120 mg/m^2), q7d×3", "result": 23}, {"measurement": "No. Surviving/No. Treated Mice", "setting": "[1]; 40 mg/kg (120 mg/m^2), q7d×3", "result": "10/10"}, {"measurement": "BW Loss (%)", "setting": "[1]; [12]", "result": 18.8, "unit": "%"}, {"measurement": "TGD (%)", "setting": "[1]; [12]", "result": 266, "unit": "%"}, {"measurement": "% TGD fold greater than for docetaxel", "setting": "[1]; each at MTD", "result": 1.6, "unit": "fold"}, {"measurement": "Conjugate remaining at 4 hr (%)", "setting": "[5]; 60 μM", "result": 72, "unit": "%"}, {"measurement": "Docetaxel released at 4 hr (%)", "setting": "[5]; 60 μM", "result": 20, "unit": "%"}, {"measurement": "Mass balance (%)", "setting": "[5]; 4 hr", "result": 92, "unit": "%"}, {"measurement": "Docetaxel released at 4 hr (%)", "setting": "[6]; 60 μM", "result": 0.6, "unit": "%"}, {"measurement": "Mass balance (%)", "setting": "[6]; 4 hr", "result": 86, "unit": "%"}]}
